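Method: 48-hour compound exposure of cells in 96-well plates, five concentrations, linear interpolation of endpoints. Abbreviation: GI50, concentration required for 50% inhibition of growth. TGI denotes the concentration required for complete inhibition of growth.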
Experiments:
Test in all cases: inhibition of tumour cell growth, NCI panel, 48 h
IGROV1 ovarian = tested on: IGROV1 ovarian
NCI-H460 lung = tested on: NCI-H460 lung
SK-MEL-28 melanoma = tested on: SK-MEL-28 melanoma
BT-549 breast = tested on: BT-549 breast
A549 NSCLC = tested on: A549 NSCLC
NCI-H226 lung = tested on: NCI-H226 lung
EKVX NSCLC = tested on: EKVX NSCLC
PC-3 prostate = tested on: PC-3 prostate
SK-MEL-2 melanoma = tested on: SK-MEL-2 melanoma
HCC-2998 colon = tested on: HCC-2998 colon
UACC-257 melanoma = tested on: UACC-257 melanoma
HCT-15 colon = tested on: HCT-15 colon
K-562 leukemia = tested on: K-562 leukemia
LOX IMVI melanoma = tested on: LOX IMVI melanoma
SK-OV-3 ovarian = tested on: SK-OV-3 ovarian
MCF7 breast = tested on: MCF7 breast
SNB-19 CNS = tested on: SNB-19 CNS
HL-60(TB) leukemia = tested on: HL-60(TB) leukemia
HOP-92 NSCLC = tested on: HOP-92 NSCLC
OVCAR-4 ovarian = tested on: OVCAR-4 ovarian
COLO 205 colon = tested on: COLO 205 colon
KM12 colon = tested on: KM12 colon
M14 melanoma = tested on: M14 melanoma
HCT-116 colon = tested on: HCT-116 colon
UACC-62 melanoma = tested on: UACC-62 melanoma
ACHN renal = tested on: ACHN renal
RXF 393 renal = tested on: RXF 393 renal
SNB-75 CNS = tested on: SNB-75 CNS
SK-MEL-5 melanoma = tested on: SK-MEL-5 melanoma
OVCAR-5 ovarian = tested on: OVCAR-5 ovarian
NCI-H522 lung = tested on: NCI-H522 lung
NCI/ADR-RES ovarian = tested on: NCI/ADR-RES ovarian
SF-268 CNS = tested on: SF-268 CNS
DU-145 prostate = tested on: DU-145 prostate
OVCAR-8 ovarian = tested on: OVCAR-8 ovarian
SW-620 colon = tested on: SW-620 colon
TK-10 renal = tested on: TK-10 renal
HS 578T breast = tested on: HS 578T breast
A498 renal = tested on: A498 renal
U251 CNS = tested on: U251 CNS
MOLT-4 leukemia = tested on: MOLT-4 leukemia
HT29 colon = tested on: HT29 colon
HOP-62 NSCLC = tested on: HOP-62 NSCLC
T-47D breast = tested on: T-47D breast
CAKI-1 renal = tested on: CAKI-1 renal
MDA-MB-231 breast = tested on: MDA-MB-231 breast
786-0 renal = tested on: 786-0 renal
MDA-MB-435 = tested on: MDA-MB-435
UO-31 renal = tested on: UO-31 renal
SF-295 CNS = tested on: SF-295 CNS
SF-539 CNS = tested on: SF-539 CNS

Compound: Nc1nc(N)c2c(n1)NC(c1ccc(Cl)cc1)CC(c1ccc(Nc3nc(NCCO)nc(Nc4ccc(Cl)cc4)n3)cc1)=N2 (configuration not stated)
- GI50 (IGROV1 ovarian): 1710 nM
- TGI (IGROV1 ovarian): 3.58 µM
- GI50 (NCI-H460 lung): 1720 nM
- TGI (NCI-H460 lung): 3.32 µM
- GI50 (SK-MEL-28 melanoma): 1730 nM
- TGI (SK-MEL-28 melanoma): 3.11 µM
- GI50 (BT-549 breast): 2250 nM
- TGI (BT-549 breast): 5.89 µM
- GI50 (A549 NSCLC): 4.12 µM
- TGI (A549 NSCLC): > 100 µM
- GI50 (NCI-H226 lung): 6.47 µM
- TGI (NCI-H226 lung): 29.8 µM
- GI50 (EKVX NSCLC): 2010 nM
- TGI (EKVX NSCLC): 6.88 µM
- GI50 (PC-3 prostate): 1930 nM
- TGI (PC-3 prostate): 7.55 µM
- GI50 (SK-MEL-2 melanoma): 1450 nM
- TGI (SK-MEL-2 melanoma): 2830 nM
- GI50 (HCC-2998 colon): 1440 nM
- TGI (HCC-2998 colon): 2780 nM
- GI50 (UACC-257 melanoma): 1910 nM
- TGI (UACC-257 melanoma): 3.74 µM
- GI50 (HCT-15 colon): 1290 nM
- TGI (HCT-15 colon): 2800 nM
- GI50 (K-562 leukemia): 713 nM
- TGI (K-562 leukemia): 3.2 µM
- GI50 (LOX IMVI melanoma): 1450 nM
- TGI (LOX IMVI melanoma): 2860 nM
- GI50 (SK-OV-3 ovarian): 14.8 µM
- TGI (SK-OV-3 ovarian): 29.3 µM
- GI50 (MCF7 breast): 1200 nM
- TGI (MCF7 breast): 2570 nM
- GI50 (SNB-19 CNS): 1990 nM
- TGI (SNB-19 CNS): 5.81 µM
- GI50 (HL-60(TB) leukemia): 1150 nM
- TGI (HL-60(TB) leukemia): 3.94 µM
- GI50 (HOP-92 NSCLC): 1290 nM
- TGI (HOP-92 NSCLC): 3.12 µM
- GI50 (OVCAR-4 ovarian): 1960 nM
- TGI (OVCAR-4 ovarian): 5.04 µM
- GI50 (COLO 205 colon): 1510 nM
- TGI (COLO 205 colon): 3.59 µM
- GI50 (KM12 colon): 3.18 µM
- TGI (KM12 colon): 10.3 µM
- GI50 (M14 melanoma): 1900 nM
- TGI (M14 melanoma): 4.39 µM
- GI50 (HCT-116 colon): 1400 nM
- TGI (HCT-116 colon): 2690 nM
- GI50 (UACC-62 melanoma): 2030 nM
- TGI (UACC-62 melanoma): 4.28 µM
- GI50 (ACHN renal): 4.69 µM
- TGI (ACHN renal): > 100 µM
- GI50 (RXF 393 renal): 1540 nM
- TGI (RXF 393 renal): 2970 nM
- GI50 (SNB-75 CNS): 1590 nM
- TGI (SNB-75 CNS): 3.97 µM
- GI50 (SK-MEL-5 melanoma): 1480 nM
- TGI (SK-MEL-5 melanoma): 2800 nM
- GI50 (OVCAR-5 ovarian): 4.48 µM
- TGI (OVCAR-5 ovarian): 19.8 µM
- GI50 (NCI-H522 lung): 1560 nM
- TGI (NCI-H522 lung): 3.16 µM
- GI50 (NCI/ADR-RES ovarian): 4.24 µM
- TGI (NCI/ADR-RES ovarian): > 100 µM
- GI50 (SF-268 CNS): 4.14 µM
- TGI (SF-268 CNS): 26.1 µM
- GI50 (DU-145 prostate): 2220 nM
- TGI (DU-145 prostate): 5.81 µM
- GI50 (OVCAR-8 ovarian): 1570 nM
- TGI (OVCAR-8 ovarian): 3.27 µM
- GI50 (SW-620 colon): 1620 nM
- TGI (SW-620 colon): 3.3 µM
- GI50 (TK-10 renal): 10.6 µM
- TGI (TK-10 renal): 25.3 µM
- GI50 (HS 578T breast): 2220 nM
- TGI (HS 578T breast): 5.01 µM
- GI50 (A498 renal): 5.9 µM
- TGI (A498 renal): 19.8 µM
- GI50 (U251 CNS): 1470 nM
- TGI (U251 CNS): 2920 nM
- GI50 (MOLT-4 leukemia): 792 nM
- TGI (MOLT-4 leukemia): 3.92 µM
- GI50 (HT29 colon): 1700 nM
- TGI (HT29 colon): 3.68 µM
- GI50 (HOP-62 NSCLC): 2830 nM
- TGI (HOP-62 NSCLC): 10.9 µM
- GI50 (T-47D breast): 1710 nM
- TGI (T-47D breast): 6.51 µM
- GI50 (CAKI-1 renal): 5.36 µM
- TGI (CAKI-1 renal): 28.2 µM
- GI50 (MDA-MB-231 breast): 1750 nM
- TGI (MDA-MB-231 breast): 3.92 µM
- GI50 (786-0 renal): 1550 nM
- TGI (786-0 renal): 3.04 µM
- GI50 (MDA-MB-435): 1630 nM
- TGI (MDA-MB-435): 3.18 µM
- GI50 (UO-31 renal): 3.1 µM
- TGI (UO-31 renal): 15.3 µM
- GI50 (SF-295 CNS): 1730 nM
- TGI (SF-295 CNS): 3.67 µM
- GI50 (SF-539 CNS): 1680 nM
- TGI (SF-539 CNS): 3.32 µM
